From patent publication US9889115B2, “Fitness assay and associated methods” (priority 1998, dated 2018)

Legend:
Format in all cases: cell-based
HIV-1LAI = test: PHA-PBMC assay, p24 Gag protein production; settings: Human immunodeficiency virus 1; HIV-1LAI, SI; PHA-PBMC, p24 (Table 3)
HIV-1BAL = test: PHA-PBMC assay, p24 Gag protein production; settings: Human immunodeficiency virus 1; HIV-1BAL, NSI; PHA-PBMC, p24 (Table 3)
HIV = test: influence of human protein binding on antiviral activity
Source text: These failures have been ascribed, but not definitively proven, to be due to excessive binding to human plasma proteins, particularly serum albumin and AAG.

[1] = system: multidrug-resistant HIV-1 clinical isolate, patient 5; test: PHA-PBMC assay, p24 Gag protein production; settings: Human immunodeficiency virus 1; Patient/Isolate code 5; PHA-PBMC, p24
Description: (§1) The patient profiles are shown below in Table 2.
(§2) To determine protease inhibitory activity against multidrug resistant HIV, the IC50's were measured against a panel of clinically isolated mutant HIV isolates.
(§3) All drug sensitivities were performed in triplicate. In order to determine whether the HIV isolates were syncitium inducing (SI) or non-syncitium inducing (NSI), an aliquot of viral stock supernatant, containing 100 TCID50, was cultured with 1×10^5 MT-2 cells in a 12-well plate. Cultures were maintained for four weeks and were examined for syncytium formation twice a week.

[2] = system: multidrug-resistant HIV-1 clinical isolate, patient 1; test: PHA-PBMC assay, p24 Gag protein production; settings: Human immunodeficiency virus 1; Patient/Isolate code 1; PHA-PBMC, p24
Description: as §1, §2, §3

[3] = system: multidrug-resistant HIV-1 clinical isolate, patient 7; test: PHA-PBMC assay, p24 Gag protein production; settings: Human immunodeficiency virus 1; Patient/Isolate code 7; PHA-PBMC, p24
Description: as §1, §2, §3

[4] = system: multidrug-resistant HIV-1 clinical isolate, patient 6; test: PHA-PBMC assay, p24 Gag protein production; settings: Human immunodeficiency virus 1; Patient/Isolate code 6; PHA-PBMC, p24
Description: as §1, §2, §3

[5] = system: multidrug-resistant HIV-1 clinical isolate, patient 3; test: PHA-PBMC assay, p24 Gag protein production; settings: Human immunodeficiency virus 1; Patient/Isolate code 3; PHA-PBMC, p24
Description: as §1, §2, §3

HIV-1ERS104pre = test: PHA-PBMC assay, p24 Gag protein production; settings: Human immunodeficiency virus 1; HIV-1ERS104pre, SI; PHA-PBMC, p24
Description: as §1, §2, §3

[6] = system: multidrug-resistant HIV-1 clinical isolate, patient 2; test: PHA-PBMC assay, p24 Gag protein production; settings: Human immunodeficiency virus 1; Patient/Isolate code 2; PHA-PBMC, p24
Description: as §1, §2, §3

[7] = system: multidrug-resistant HIV-1 clinical isolate, patient 4; test: PHA-PBMC assay, p24 Gag protein production; settings: Human immunodeficiency virus 1; Patient/Isolate code 4; PHA-PBMC, p24
Description: as §1, §2, §3

[8] = system: multidrug-resistant HIV-1 clinical isolate, patient 8; test: PHA-PBMC assay, p24 Gag protein production; settings: Human immunodeficiency virus 1; Patient/Isolate code 8; PHA-PBMC, p24
Description: as §1, §2, §3

[9] = system: multidrug-resistant HIV-1 clinical isolate, patient 22; test: IC50 against multidrug-resistant clinical isolates (Table 9a); settings: Patient Isolate 22; read-out: IC50
Description: (§4) The mutant multidrug-resistant HIV-1 strains corresponding to each patient, numbered 9-35, were genetically analyzed in terms of the nucleic acid sequences of the protease (PR) and a portion of the reverse transcriptase (RT) genes from which mutations in these enzymes were determined. The mutations in the protease and reverse transcriptase of the multidrug-resistant viruses isolated from each patient are shown below in Table 9b.

[10] = system: multidrug-resistant HIV-1 clinical isolate, patient 19; test: microbe, parasite or virus in culture; settings: Patient Isolate 19
Description: as §4

[11] = system: multidrug-resistant HIV-1 clinical isolate, patient 10; test: microbe, parasite or virus in culture; settings: Patient Isolate 10
Description: as §4

[12] = system: multidrug-resistant HIV-1 clinical isolate, patient 16; test: microbe, parasite or virus in culture; settings: Patient Isolate 16
Description: as §4

[13] = system: multidrug-resistant HIV-1 clinical isolate, patient 32; test: microbe, parasite or virus in culture; settings: Patient Isolate 32
Description: as §4

[14] = system: multidrug-resistant HIV-1 clinical isolate, patient 15; test: microbe, parasite or virus in culture; settings: Patient Isolate 15
Description: as §4

[15] = system: multidrug-resistant HIV-1 clinical isolate, patient 21; test: microbe, parasite or virus in culture; settings: Patient Isolate 21
Description: as §4

[16] = system: multidrug-resistant HIV-1 clinical isolate, patient 28; test: microbe, parasite or virus in culture; settings: Patient Isolate 28
Description: as §4

[17] = system: multidrug-resistant HIV-1 clinical isolate, patient 18; test: microbe, parasite or virus in culture; settings: Patient Isolate 18
Description: as §4

[18] = system: multidrug-resistant HIV-1 clinical isolate, patient 14; test: microbe, parasite or virus in culture; settings: Patient Isolate 14
Description: as §4

[19] = system: multidrug-resistant HIV-1 clinical isolate, patient 23; test: microbe, parasite or virus in culture; settings: Patient Isolate 23
Description: as §4

[20] = system: multidrug-resistant HIV-1 clinical isolate, patient 17; test: microbe, parasite or virus in culture; settings: Patient Isolate 17
Description: as §4

[21] = system: multidrug-resistant HIV-1 clinical isolate, patient 33; test: microbe, parasite or virus in culture; settings: Patient Isolate 33
Description: as §4

[22] = system: multidrug-resistant HIV-1 clinical isolate, patient 30; test: microbe, parasite or virus in culture; settings: Patient Isolate 30
Description: as §4

[23] = system: multidrug-resistant HIV-1 clinical isolate, patient 35; test: microbe, parasite or virus in culture; settings: Patient Isolate 35
Description: as §4

[24] = system: multidrug-resistant HIV-1 clinical isolate, patient 20; test: microbe, parasite or virus in culture; settings: Patient Isolate 20
Description: as §4

[25] = system: multidrug-resistant HIV-1 clinical isolate, patient 9; test: microbe, parasite or virus in culture; settings: Patient Isolate 9
Description: as §4

[26] = system: multidrug-resistant HIV-1 clinical isolate, patient 29; test: microbe, parasite or virus in culture; settings: Patient Isolate 29
Description: as §4

[27] = system: multidrug-resistant HIV-1 clinical isolate, patient 13; test: microbe, parasite or virus in culture; settings: Patient Isolate 13
Description: as §4

[28] = system: multidrug-resistant HIV-1 clinical isolate, patient 11; test: microbe, parasite or virus in culture; settings: Patient Isolate 11
Description: as §4

[29] = system: multidrug-resistant HIV-1 clinical isolate, patient 12; test: microbe, parasite or virus in culture; settings: Patient Isolate 12
Description: as §4

[30] = system: multidrug-resistant HIV-1 clinical isolate, patient 27; test: microbe, parasite or virus in culture; settings: Patient Isolate 27
Description: as §4

wild-type HIV-1 (WT) = test: IC50 against wild-type HIV-1 (Table 9a); settings: (WT)
[31] = system: multidrug-resistant HIV-1 clinical isolate, patient 34; test: IC50 against multidrug-resistant clinical isolates (Table 9a); settings: Patient Isolate 34; read-out: IC50
Description: as §4

[32] = system: multidrug-resistant HIV-1 clinical isolate, patient 31; test: microbe, parasite or virus in culture; settings: Patient Isolate 31
Description: as §4

| Compound | IC50 [9] [nM] | IC50 [10] [nM] | IC50 [11] [nM] | IC50 [12] [nM] | IC50 [13] [nM] | IC50 [14] [nM] | IC50 [15] [nM] | IC50 [16] [nM] | IC50 [17] [nM] | IC50 [18] [nM] | IC50 [19] [nM] | IC50 [20] [nM] | IC50 [21] [nM] | IC50 [22] [nM] | IC50 [23] [nM] | IC50 [24] [nM] | IC50 [25] [nM] | IC50 [26] [nM] | IC50 [27] [nM] | IC50 (wild-type HIV-1 (WT)) [nM] | other results |
| --- | --- | --- | --- | --- | --- | --- | --- | --- | --- | --- | --- | --- | --- | --- | --- | --- | --- | --- | --- | --- | --- |
| CC(C)CN(C[C@@H](O)[C@H](Cc1ccccc1)NC(=O)O[C@H]1CCOC1)S(=O)(=O)c1ccc(N)cc1 [AMV, Amprenavir] | – | – | – | – | – | – | – | – | – | – | – | – | – | – | – | – | – | – | – | – | IC50 (HIV-1LAI): 19 nM; IC50 (HIV-1BAL): 14 nM; fold of IC50 relative to (−) (HIV; (−), no added protein): 1 ×; fold of IC50 relative to (−) (HIV; Alb: human serum albumin (HAS, 300 μM)): 1 ×; IC50 (HIV; Human immunodeficiency virus 1, (−), no added protein): 29 nM; IC50 (HIV; Human immunodeficiency virus 1, Alb: human serum albumin (HAS, 300 μM)): 21 nM; IC50 (HIV; Human immunodeficiency virus 1, human alpha acid glycoprotein (AAG, 10 μM)): 180 nM; fold of IC50 relative to (−) (HIV; human alpha acid glycoprotein (AAG, 10 μM)): 6 ×; IC50 [1]: 280 nM; IC50 [2]: 290 nM; IC50 [3]: 420 nM; IC50 [4]: 110 nM; IC50 [5]: 330 nM; IC50 (HIV-1ERS104pre): 21 nM; IC50 [6]: 240 nM; IC50 [7]: 400 nM; IC50 [8]: 220 nM |
| Cc1cn([C@H]2C[C@H](N=[N+]=[N-])[C@@H](CO)O2)c(=O)[nH]c1=O [AZT, 3′-azido-2′,3′-dideoxythymidine] | 1020 | > 1250 | 20 | 970 | 320 | 200 | > 1250 | > 1250 | 550 | 640 | 190 | > 1250 | 510 | 160 | 880 | 1250 | 10 | > 1250 | 170 | 22 | IC50 [28]: 110 nM; IC50 [29]: 70 nM; IC50 [30]: 30 nM |
| Nc1ccn([C@@H]2CS[C@H](CO)O2)c(=O)n1 [Compound 3TC] | – | – | – | – | – | – | – | – | – | – | – | – | – | – | – | – | – | – | – | 264 | – |
| Cc1cn([C@H]2C=C[C@@H](CO)O2)c(=O)[nH]c1=O [Compound D4T] | 4680 | 35600 | 1290 | 1810 | 2410 | 1100 | 3280 | 5440 | 2080 | 1100 | 1000 | 4280 | 2730 | 2520 | 18100 | 22500 | 910 | 5290 | 780 | 1060 | IC50 [31]: 7710 nM; IC50 [32]: 3110 nM; IC50 [28]: 3100 nM; IC50 [29]: 1230 nM; IC50 [30]: 4000 nM |
